For 13 molecules, Acute toxicity and inhibition in vivo results are on record in patent publication US20260022098A1, “BULLEYACONITINE A DERIVATIVE WITH ANALGESIC ACTIVITY, AND PREPARATION METHOD AND APPLICATION THEREOF” (priority 2023, published 2026).

For data set [1], the system named is Kunming mice. The experiment in a line: Acute toxicity / median lethal dose (LD50) determination, subcutaneous injection. The class given is in vivo. Further details: key to Acute toxicity: if death occurred, (+) represented as positive; if no death occurred, (−) represented as negative. To be noted: mice administered 20 mg/kg subcutaneously, presence of death within 24 h. As to the method: (§1) The experimental animals were Kunming mice (male:female=1:1), weighed 22+2 g, which were provided by Chengdu dossy experimental animals Co., ltd., China. The mice were kept in the animal room of the School of Life Science and Engineering, Southwest Jiaotong University, where the animal room was set at a temperature of 23±2° C., a humidity of […] and a photoperiod of 16:8 h (L:D). Before the experiment, the mice were freely fed for 2-3 days with water and feed to adapt to the new environment. Then, the mice were treated by water and food fasting for 12 h. 10 animals were allocated to each group to ensure that there are at least 6 sets of valid data in each group. The animal experiments were carried out in strict accordance with the national regulations on the management of experimental animals.
(§2) The compounds prepared in the examples provided herein (test sample set) and bulleyaconitine A (positive control set) were all dissolved with 0.1 mol/L HCl according to a molar ratio of 1:1, and then diluted with physiological saline to a concentration to be determined. Blank control was physiological saline containing 0.1 mol/L HCl. The animals in the control groups were subjected to the same treatment as those in experimental groups except that samples to be test were replaced with physiological saline.
(2) Median Lethal Dose (LD50) Determination
The sample to be tested was dissolved with 0.1 mol/L HCl according to the amount of the substance ratio of 1:1, and diluted with physiological saline according to the required concentration. 10 mice in each group were randomly selected, half of which were male and half of which were female, and were placed in independent cages. Each mouse was injected subcutaneously with different sample solutions to be tested according to a dose of 0.1 mL/10 g body weight. In the preliminary toxicity experiment, the measured concentration was 20 mg/kg, and then based on the survival rate of the experimental animals in the preliminary experiment, the sample to be tested was set to at least 5 groups with different concentration dose according to the proportional series. The survival rate of mice within 24 h was recorded. The obtained dose-survival rate data was input into the SPSS software (version 17.2), and the LD50 of the sample was calculated according to the Probit regression method.

The test system of data set [2] is Kunming mice. The experiment in a line: Analgesic activity by acetic acid-induced writhing method (writhing inhibition rate, ED50). The class given is in vivo. To be noted: Mus musculus, sc, read-out: Analgesia rate (%) ± SEM. As for the experimental part:
as §1, §2
(1) Determination of Analgesic Activity Through an Acetic Acid-Induced Writhing Method
10 mice were randomly selected, male:female=1:1, were placed in independent cages. Each mouse was injected subcutaneously with the sample solution mentioned above at a dose of 0.1 mL/10 g body weight. After 15 min, a 0.7% acetic acid solution was intraperitoneally injected. A number of writhing reactions in each mouse within 15 minutes was recorded. The group that the mice were injected with physiological saline subcutaneously was the blank group; the group that the mice were injected with the sample to be tested was the experimental group; and the group that the mice were injected with bulleyaconitine A was the positive group. The analgesic activity was represented by a percentage of the reduced number of writhing compared to the blank group (writhing inhibition rate), which were specifically as follows: writhing inhibition rate (analgesic activity)=(average number of writhing times in the blank group-average number of writhing times in the experimental group)/average number of writhing times in the blank group×100%.
Median Effective Dose (ED50) Determination
The sample to be tested was dissolved with 0.1 mol/L HCl according to the amount of the substance ratio of 1:1, and diluted with physiological saline according to the proportional series to obtain at least 5 groups with different dose concentrations. The writhing inhibition rate of each dose group was tested according to the acetic acid-induced writhing method mentioned above. The obtained dose-writhing inhibition data was entered into the statistical product and service solutions (SPSS) software (version 17.2), and the ED50 of the sample to be tested was calculated through the Probit regression method.
For orientation: Writhing tests count abdominal constrictions after an irritant is injected.

Turning to `CCO[C@]12C[C@H](OC)[C@@]3(OC(=O)c4ccccc4Br)CC(C1[C@H]3OC(=O)c1ccccc1Br)[C@]13C4[C@@H](OC)C2[C@H]1N(CC)C[C@]4(COC)CC[C@@H]3OC` (some centres unmarked) [Compound 67], the Acute toxicity result with Kunming mice [1] was “−”. In addition, the inhibition in vivo at 0.05 mg/kg in the data set with Kunming mice [2] was 17.8 ± 1.9%.
As for `CCO[C@]12C[C@H](OC)[C@@]3(OC(=O)c4ccccc4Cl)CC(C1[C@H]3OC(=O)c1ccccc1Cl)[C@]13C4[C@@H](OC)C2[C@H]1N(CC)C[C@]4(COC)CC[C@@H]3OC` (some centres unmarked) [Compound 68], the Acute toxicity entry in the data set on Kunming mice [1] is recorded as “−”. Moreover, in the data set with Kunming mice [2], the inhibition in vivo at 0.05 mg/kg was 24.6 ± 1.7%.
As to `CCO[C@]12C[C@H](OC)[C@@]3(OC(=O)c4cccc(Br)c4)CC(C1[C@H]3OC(=O)c1cccc(Br)c1)[C@]13C4[C@@H](OC)C2[C@H]1N(CC)C[C@]4(COC)CC[C@@H]3OC` (some centres unmarked) [Compound 70], the Acute toxicity result in the data set with Kunming mice [1] was “−”. Also, the inhibition in vivo at 0.05 mg/kg with Kunming mice [2] was 5.83 ± 1.7%.
Consider `CCO[C@]12C[C@H](OC)[C@@]3(OC(=O)c4cccc(Cl)c4)CC(C1[C@H]3OC(=O)c1cccc(Cl)c1)[C@]13C4[C@@H](OC)C2[C@H]1N(CC)C[C@]4(COC)CC[C@@H]3OC` (some centres unmarked) [Compound 71], for which the Acute toxicity entry in the data set on Kunming mice [1] is listed as “−”. In addition, the inhibition in vivo at 0.05 mg/kg in the data set on Kunming mice [2] came out at 4.11 ± 2%.
Taken in the same sequence, the figures for `CCO[C@]12C[C@H](OC)[C@@]3(OC(=O)c4cccc(F)c4)CC(C1[C@H]3OC(=O)c1cccc(F)c1)[C@]13C4[C@@H](OC)C2[C@H]1N(CC)C[C@]4(COC)CC[C@@H]3OC` (some centres unmarked) [Compound 72] were “−” and 24.7 ± 2%.
For `CCO[C@]12C[C@H](OC)[C@@]3(OC(=O)c4ccc(Cl)cc4Cl)CC(C1[C@H]3OC(=O)c1ccc(Cl)cc1Cl)[C@]13C4[C@@H](OC)C2[C@H]1N(CC)C[C@]4(COC)CC[C@@H]3OC` (some centres unmarked) [Compound 73] the same measures were “−” and 33.5 ± 2.7%.
For `CCO[C@]12C[C@H](OC)[C@@]3(OC(=O)c4cc(F)cc(F)c4)CC(C1[C@H]3OC(=O)c1cc(F)cc(F)c1)[C@]13C4[C@@H](OC)C2[C@H]1N(CC)C[C@]4(COC)CC[C@@H]3OC` (some centres unmarked) [Compound 74] the same measures were “−” and 23.9 ± 2.8%.
`CCO[C@]12C[C@H](OC)[C@@]3(OC(=O)c4ccccc4C)CC(C1[C@H]3OC(=O)c1ccccc1C)[C@]13C4[C@@H](OC)C2[C@H]1N(CC)C[C@]4(COC)CC[C@@H]3OC` (some centres unmarked) [Compound 75]: the Acute toxicity entry in the data set on Kunming mice [1] is “−”. Further, the inhibition in vivo at 0.05 mg/kg in the data set on Kunming mice [2] was 10.8 ± 2.2%.
For `CCO[C@]12C[C@H](OC)[C@@]3(OC(=O)c4cccc(OC)c4)CC(C1[C@H]3OC(=O)c1cccc(OC)c1)[C@]13C4[C@@H](OC)C2[C@H]1N(CC)C[C@]4(COC)CC[C@@H]3OC` (some centres unmarked) [Compound 76] the same measures were “−” and 0%.
Taken in the same sequence, the figures for `CCCC(=O)O[C@@H]1C2C3C[C@]1(OC(=O)CCC)[C@@H](OC)C[C@]2(OCC)C1[C@H](OC)C2[C@@]4(COC)CC[C@H](OC)[C@@]32[C@@H]1N(CC)C4` (some centres unmarked) [Compound 77] were “−” and 34.2 ± 1.8%.
For `CCCC(=O)O[C@]12CC3C([C@H]1OC(=O)c1ccc(OC)cc1)[C@](OCC)(C[C@@H]2OC)C1[C@H](OC)C2[C@@]4(COC)CC[C@H](OC)[C@@]32[C@@H]1N(CC)C4` (some centres unmarked) [Compound 78] the same measures were “−” and 31.7 ± 1.4%.
In the case of `CCO[C@]12C[C@H](OC)[C@@]3(OC(=O)C(C)C)CC(C1[C@H]3OC(=O)C(C)C)[C@]13C4[C@@H](OC)C2[C@H]1N(CC)C[C@]4(COC)CC[C@@H]3OC` (some centres unmarked) [Compound 80], the Acute toxicity entry with Kunming mice [1] is listed as “−”. The inhibition in vivo at 0.05 mg/kg with Kunming mice [2] turned out to be 19.1 ± 2.1%.
With `CCO[C@]12C[C@H](OC)[C@@]3(OC(=O)C(C)C)CC(C1[C@H]3OC(=O)c1ccc(OC)cc1)[C@]13C4[C@@H](OC)C2[C@H]1N(CC)C[C@]4(COC)CC[C@@H]3OC` (some centres unmarked) [Compound 81], the Acute toxicity result in the data set with Kunming mice [1] is recorded as “−”. In addition, the inhibition in vivo at 0.05 mg/kg in the data set on Kunming mice [2] worked out at 28.8 ± 1.2%.
